Experiment [1] deals with C2C12 Myoblasts. The experiment can be described thus: Effect of Rotenone on O2, CO2 and pH flux rates of C2C12 myoblasts (prototype enclosed sample chamber). The experiment is classed as cell-based, murine. Further details: key to O2 Rate / CO2 Rate: flux rate in nmol/minute. Conditions: for CO2 Rate / O2 Rate / pH Rate: 20 minute measurement. From the text:
(§1) The device included a cylindrical vessel, fabricated from polycarbonate material, and designed to receive a 12 mm diameter, polycarbonate membrane assembly (Corning Snapwell™ P/N 3802) with a pore size of approximately 3 μm. A cylindrical polycarbonate cover could be temporarily inserted into the vessel to form a smaller sample chamber, approximately 1.5 mm high, with a volume of about 160 microliter (μl). A series of bores around the perimeter of the vessel allowed the insertion of three 500 μm diameter optical fibers. The distal tip of each optical fiber was coated with a fluorescent sensing material to form a biosensor.
(§2) The three biosensors were designed to measure the partial pressures of O2 and CO2, and the pH of the media contained within the vessel. One fiber tip was coated with a matrix of Ruthenium dyes, encapsulated in oxygen permeable silicone rubber, to provide a readout of dissolved oxygen concentration. A second fiber tip was coated with a complex of Fluoroscene dye encapsulated in silicone rubber, to provide a readout of H^+ ion concentration (pH). A third biosensor was fabricated by using a CO2 permeable membrane to create a small reservoir of NaHCO3 surrounding a HydroxyPyrene Trisodium Salt (HPTS) pH sensitive dye. A change in CO2 concentration in the cell media would then cause a change in pH of this encapsulated reagent resulting in a measurable change in the fluorescent properties of the pH sensitive dye, and this change was calibrated to provide quantitative CO2 concentration data.
(§3) To determine the extracellular flux rates of O2 and CO2, the rates of change of partial pressures were divided by volume of each analytes available in the media (moles) to result in a value expressed in nmol/minute. The rate of acidification was expressed in mpH units/min (multiplied by 20 for scaling on the chart), but can easily be shown as protons per minute by calculating the number of available […] in the media buffer within the known sample volume.
Rotenone is known to inhibit cellular respiration by blocking NADH dehydrogenase in the respiratory chain. C2C12 Myoblasts were used to show this effect. 1.5×10^5 C2C12 myoblasts were seeded on membranes, incubated and placed in the measurement system along with 150 μl NaHCO3-free DMEM medium of as described in Example 3.
The dissolved concentrations of O2 and CO2, and the pH in the media were then measured every 5 seconds for a period of 20 minutes in order to determine a control baseline for each analyte flux. Once the baseline was established, a sequence of experiments were performed where varying doses of Rotenone (obtained from Sigma, St. Louis Mo.) were added to the cell media and a 20 minute measurement of analyte flux rates was performed. A control experiment was also performed using the highest dose of Rotenone, but without cells.

The next experiment has as its system CHO-M3 cells. The experiment is described as follows: Effect of carbachol on O2 consumption, CO2 production and extracellular acidification rates of CHO-M3 cells (stop flow cycles). The experiment is classed as cell-based, Chinese hamster. From the text:
Chinese hamster ovary (CHO) cells were transfected to over-express the muscarinic receptor subtype m3. The prototype device described in Example 1 was then used to monitor O2 consumption, CO2 production, and extracellular acidification rates, following treatment with the well-known, general acetylcholine receptor agonist, Carbachol.
Materials and Methods: Cell culture reagents were obtained from Gibco BRL (Grand Island, N.Y.). Carbachol was purchased from Sigma Chemical Co. (St. Louis, Mo.). Bicarbonate-free DMEM medium was obtained from Specialty Media (Phillipsburg, N.J.). Polycarbonate membrane snapwells (12 mm diameter, 3 μm pore size) were obtained from Corning (Corning, N.Y.). CHO cells expressing m3-muscarinic receptors (CHO-M3 cells) were obtained from the American Type Tissue Culture (ATCC; Manassas, Va.). Cells were cultured in Ham's F-12 medium supplemented with 10% fetal bovine serum (Hyclone), 1% GlutaMax and 0.1% Gentamicin and were maintained in a 5% CO2 incubator. Cells were subcultured when they reached 80% confluency. CHO-M3 cells were seeded at a density of 2×10^5 onto a snapwell 24 hours prior to use. Immediately prior to testing, cells on snapwells were switched to bicarbonate-free DMEM medium combined with 3.7 g/l NaCl to maintain osmolarity (medium pH 7.4-7.5).
Protocol Description: Probes were calibrated immediately prior to testing. The bottom of the test vessel was filled with bicarbonate-free medium. The snapwell was removed from a 5% CO2 incubator, and the regular growth medium (Ham's F-12) was replaced with bicarbonate-free DMEM medium. Thereafter, the snapwell was placed into the test vessel. Bicarbonate-free medium was pipetted onto the top of the snapwell, and the cover piece of the test vessel was placed gently on top of the snapwell and screwed into place, compressing the assembly. The probe software was started, and the pH, CO2 and O2 analytes were measured over the next 3.5 hours. Following the initial 1.5 hours of perfusion at a rate of 78 μl/min, a series of stop flow (10 minutes each) and medium re-perfusion (10 minutes each, 78 μl/min) cycles were started. During the last 2 minutes of medium re-perfusion cycle number 5, 100 μM carbachol was perfused across the snapwell. During re-perfusion number 6, bicarbonate-free DMEM medium was once again perfused across the snapwell. A rate of change for the analytes was calculated during each stop flow cycle.
The first four series of perfusion/stop flow cycles were done to establish a noise band on the three analytes prior to carbachol treatment during perfusion number 5. Bicarbonate-free medium re-perfusion during per perfusion number 6 and the rates calculated during stop flow number 6 were to assess potential continuing post-carbachol treatment effects on analytes' rates. Resulting data are shown below in Table 6 and in FIG. 11.

The test system of experiment [2] is C2C12 Myoblasts. The experiment is described as follows: Effect of 2,4 DNP on O2, CO2 and pH flux rates of C2C12 myoblasts (prototype enclosed sample chamber). The experiment is classed as cell-based, murine. Conditions: for CO2 Rate / O2 Rate / pH Rate: 20 minute measurement.
From the text: as §1, §2, §3
In this experiment, C2C12 myoblasts were seeded on 12 mm diameter polycarbonate membranes and incubated for 12 hours. Wells were then removed from the incubator, inspected visually, and placed into the measurement device. 160 μl of NaHCO3-free DMEM medium was then added, and the device was assembled to form an enclosed sample chamber.
The dissolved concentrations of O2 and CO2, and the pH in the media were then measured every 5 seconds for a period of 20 minutes in order to determine a control baseline for each analyte flux. Once the baseline was established, a sequence of experiments were performed where varying doses of 2,4 DNP (obtained from Sigma, St. Louis Mo.) were added to the cell media and a 20 minute measurement of analyte flux rates was performed. A control experiment was also performed using the highest dose of 2,4 DNP, but without cells.

Where [3] appears, read: Rotenone dose 25 (unit not given).
[4] abbreviates: Rotenone dose 50 (unit not given).
Where [5] appears, read: Rotenone dose 100 (unit not given).
Where [6] appears, read: Rotenone dose 200 (unit not given).
The mark [7] stands for this setting: Stop Flow 5, after 2-minute exposure to 100 μM carbachol.
Where [8] appears, read: Stop Flow 6, post-carbachol, after re-perfusion with bicarbonate-free medium.

`C=C(C)[C@H]1Cc2c(ccc3c2O[C@@H]2COc4cc(OC)c(OC)cc4[C@@H]2C3=O)O1` [Rotenone]: in the experiment on C2C12 Myoblasts [1] (setting [3]), the CO2/O2 is on record as 4.00, the O2/pH is on record as 0.17, the “CO2 Rate” value turned out to be 1.76 and the “O2 Rate” value was 0.44. Besides, the “pH Rate” value in the experiment with C2C12 Myoblasts [1] (setting [3]) came out at 0.026. Further, in the experiment with C2C12 Myoblasts [1] (setting [4]), the CO2/O2 is reported as 8.02, the O2/pH turned out to be 0.08, the “CO2 Rate” value was found to be 2.08 and the “O2 Rate” value stood at 0.26. The “pH Rate” value with C2C12 Myoblasts [1] (setting [4]) turned out to be 0.031. In addition, in the experiment with C2C12 Myoblasts [1] (setting [5]), the CO2/O2 came to 12.18, the O2/pH turned out to be 0.09, the “CO2 Rate” value came out at 2.34 and the “O2 Rate” value was 0.19. The “pH Rate” value in the experiment on C2C12 Myoblasts [1] (setting [5]) worked out at 0.023. In addition, in the experiment on C2C12 Myoblasts [1] (setting [6]), the CO2/O2 was 69.84, the O2/pH is recorded as 0.02, the “CO2 Rate” value is listed as 2.24 and the “O2 Rate” value came out at 0.04. For the same molecule, the “pH Rate” value in the experiment on C2C12 Myoblasts [1] (setting [6]) came out at 0.027. Besides, the “O2 consumption rate (effect of treatment)” value in the experiment with C2C12 Myoblasts [1] (over doses of Table 4) is recorded as “dose-dependent decrease”.

As for `C[N+](C)(C)CCOC(N)=O` [carbachol, Carbachol], in the experiment on CHO-M3 cells (2-minute exposure to carbachol), the “CO2 rate versus baseline” value was “increases above baseline levels” and the “O2 rate versus baseline” value is given as “increases above baseline levels”. Besides, in the experiment on CHO-M3 cells (2-minute exposure to carbachol, 0.01 PHU/min baseline), the “change in pH rate versus average baseline” value is “doubling”. For the same molecule, in the experiment with CHO-M3 cells (setting [7]), the CO2 Rate is 0.20 nmol/min, the “O2/CO2 Ratio” value was 1.99, the “O2/pH Ratio” value came out at 0.26 and the O2 Rate was found to be 0.40 nmol/min. For the same molecule, the pH Rate in the experiment with CHO-M3 cells (setting [7]) amounted to 0.02 PHU/min. In the experiment with CHO-M3 cells (setting [8]), the CO2 Rate amounted to 0.10 nmol/min, the “O2/CO2 Ratio” value came to 3.34, the “O2/pH Ratio” value came out at 0.29 and the O2 Rate came out at 0.33 nmol/min. This molecule also had a pH Rate with CHO-M3 cells (setting [8]) of 0.01 PHU/min. The “Post-treatment rates versus pre-treatment values” with CHO-M3 cells (stop flow period number 6) is given as “essentially returned to pre-treatment values”.

For the molecule `O=[N+]([O-])c1ccc(O)c([N+](=O)[O-])c1` [2,4 DNP], in the experiment with C2C12 Myoblasts [2] (2,4 DNP dose 10 μm), the CO2/O2 was 2.18, the O2/pH stood at 0.46, the “CO2 Rate” value was 2.78 nM/min and the “O2 Rate” value is recorded as 1.26 nM/min. Besides, in the experiment with C2C12 Myoblasts [2] (2,4 DNP dose 10 μm), the “pH Rate” value is on record as 0.028 pH/min. For the same molecule, in the experiment on C2C12 Myoblasts [2] (2,4 DNP dose 50 μm), the CO2/O2 is listed as 2.13, the O2/pH was determined as 0.64, the “CO2 Rate” value is recorded as 4.24 nM/min and the “O2 Rate” value came to 1.99 nM/min. For the same molecule, the “pH Rate” value with C2C12 Myoblasts [2] (2,4 DNP dose 50 μm) is 0.031 pH/min. In the experiment on C2C12 Myoblasts [2] (2,4 DNP dose 100 μm), the CO2/O2 is reported as 2.00, the O2/pH stood at 0.73, the “CO2 Rate” value came out at 4.59 nM/min and the “O2 Rate” value was 2.30 nM/min. Besides, in the experiment with C2C12 Myoblasts [2] (2,4 DNP dose 100 μm), the “pH Rate” value amounted to 0.032 pH/min. Besides, in the experiment with C2C12 Myoblasts [2] (over doses of Table 3), the “O2 consumption rates (effect of treatment)” value is “dose-dependent increase” and the “extracellular acidification (effect of treatment)” value is given as “little effect”.
